Columns and labels:
Solubility in water = format: physicochemical; details: 25° C., read-out: solubility in H2O
Bermudagrass = assay: Turfgrass quality rating, Bermudagrass in golf course fairway conditions; format: in vivo, Cynodon spp.; details: monthly 0.5-3.0 lbs nitrogen/1000 sq ft
Method: (§1) Bermudagrass was grown and maintained in golf course fairway conditions. The bermudagrass was mown at a ½ inch height of cut and fertilized monthly between 0.5 and 3.0 lbs nitrogen per 1000 square feet. Lysine HCL and liquid lysine in aqueous solutions were compared with inorganic, quick release/response urea and the organic industry standard Milorganite. Urea, lysine HCl and liquid lysine were spray/liquid applied, while Milorganite was applied as a solid granular product.
Overall turf quality was rated weekly using a visual scale of 1-9 with 9 representing perfect turf (rarely attained, if ever). Ratings higher than 6.0 are considered acceptable while any rating below 6.0 is considered unacceptable. […] All fertilizers responded with acceptable turf ratings at all application rates, but lysine HCL trended better.
as §1, with “HCl applied as a solid granular was” for “HCL and liquid lysine in aqueous solutions were”, “Urea was” for “Urea, lysine HCl and liquid lysine were”
Lysine HCL was applied as a solid granular to compare with spray applied lysine HCL and liquid lysine. […]

Creeping bentgrass [1] = assay: Turfgrass quality after true foliar application, creeping bentgrass greens and tees; format: in vivo, Agrostis; details: averaged over six weeks
Excerpt: (§2) True foliar applications were studied with Tall Fescue grass. Normal foliar rates of 0.5, 1.0 and 3.0 lb nitrogen per 1000 sq ft were used with water volumes in the range of 0.5 to 2.0 gallons per 1000 sq ft (for comparison non-foliar, normal liquid spray applications are typically more than 4.0 gallons of water per 1000 sq ft.) Results are presented in FIG. 15 for mean data taken during a 5 week period. […] However, as true application rates are ⅛ the 1× rate, burn potential for foliar applications is limited.
True foliar applications were studied with creeping bentgrass on greens and tees at the rates used in Example 9.

Creeping bentgrass [2] = assay: Phytotoxicity rating, creeping bentgrass fairways; format: in vivo, Agrostis
Excerpt: Creeping bentgrass is a major choice for fairways, golf greens and tees in the cool-temperate zone. It has the ability to withstand close mowing and is very “aggressive” which allows for quick recovery from injuries. Creeping bentgrass was fertilized in Fairways substantially the same as described in example 1 at three different rates: half, full and 3× normal rates (0.5, 1.0 and 3.0 lbs nitrogen/1000/month) applied on a monthly basis. Turfgrass quality ratings were taken every month from June through November along with “color” and “phytotoxicity” ratings. Turfgrass quality and toxicity were measured on a 1-9 visual basis with 9 representing the highest quality turf or most injury/burn to the turfgrass. Fairways toxicity ratings and turfgrass quality ratings are shown in FIGS. 10 and 11, respectively. The most crucial months with regard to fertilizer application toxicity are the mid-summer months of July and August due to hotter and more humid conditions which typically amplify any potential for fertilizer “burn” injury.

Kentucky blue grass = assay: Turfgrass quality rating, Kentucky blue grass lawns; format: in vivo, Poa pratensis; details: 1.0 lb nitrogen per 1000 sq ft per month
Method: Kentucky blue grass is often used as a turfgrass species in the cool, temperature zone as a blend of varieties or within specialized “mixes” created for various geographical locations. In this embodiment, Kentucky blue grass was fertilized under a normal application rate of 1.0 lb nitrogen per 1000 sq ft per month in high quality, high maintenance lawns. Turfgrass quality and toxicity were measured on a 1-9 visual basis with 9 representing the highest quality turf or the most injury, respectively.

Ultra-Dwarf Bermudagrass = assay: Turfgrass quality rating, Ultra-Dwarf Bermudagrass golf greens; format: in vivo, Cynodon spp.; details: normal 0.125 lb nitrogen/week rate
Excerpt: Ultra-dwarf bermudagrass is typically mown at ⅛ inch or lower and fertilized on a weekly basis which is termed “spoon feeding”. Lysine HCl, liquid lysine, Milogranite and urea were applied under substantially the same conditions as described in Example 1. Overall turf quality was rated weekly using a visual scale of 1-9 with 9 representing perfect turf. Ratings higher than 6.0 are considered acceptable while any rating below 6.0 is unacceptable.

Bermuda grass [3] = assay: Turfgrass quality after true foliar application, Bermuda grass fairways; format: in vivo, Cynodon spp.; details: mean over seven weeks
Excerpt: as §2
(§3) True foliar applications were studied with Bermuda grass in Fairways at the rates used in EXAMPLE 9. Results for mean data averaged over seven weeks for burn rate and turfgrass quality are presented in FIGS. 17 and 18, respectively. […] Lysine HCl had 3-5% burn levels depending upon the rate of application.

Creeping bentgrass [4] = assay: Phytotoxicity rating, creeping bentgrass greens; format: in vivo, Agrostis; details: bi-weekly application
Method: (§4) Creeping bentgrass is a major choice for fairways, golf greens and tees in the cool-temperate zone. It has the ability to withstand close mowing and is very “aggressive” allowing for quick recovery from injuries. It was fertilized in greens at half, full and […] rate of application (0.063, 0.125 and 0.25 lbs nitrogen/1000 sq ft) on a bi-weekly basis. Turfgrass quality and toxicity were measured on a 1-9 visual basis, with 9 representing the highest quality turf or the most injury respectively. Fairways toxicity ratings and turfgrass quality ratings are shown in FIGS. 12 and 13, respectively.

Creeping bentgrass [5] = assay: Turfgrass quality rating, creeping bentgrass greens; format: in vivo, Agrostis; details: creeping bentgrass greens, 0.063, 0.125 and 0.25 lbs nitrogen/1000 sq ft bi-weekly
Method: as §4

St. Augustine grass = assay: Turfgrass quality rating, St. Augustine grass fertilized monthly; format: in vivo, Stenotaphrum secundatum
Excerpt: St. Augustine grass was fertilized monthly at rates of between 0.5 and 3.0 lbs nitrogen/1000 square feet with lysine HCL and Liquid Lysine, which were compared with inorganic, quick release/response urea and the organic industry standard Milorganite. Urea, lysine HCl, and liquid lysine were spray/liquid applied, while Milorganite was applied as a solid granular product.
Overall turf quality was rated weekly using a visual scale of 1-9 with 9 representing perfect turf. Ratings higher than 6.0 are considered acceptable, while any rating below 6.0 is unacceptable.

Bermuda grass [6] = assay: Burn after true foliar application, Bermuda grass fairways; format: in vivo, Cynodon spp.
Excerpt: as §2, §3

| SMILES | solubility (Solubility in water) [mg/mL] | overall turf quality (visual scale 1-9) (Bermudagrass; applied as solid granular) | total seasonal turfgrass quality (visual scale 1-9) (Bermudagrass; aqueous spray applied) | turfgrass quality rating (Creeping bentgrass [1]) | phytotoxicity (injury) rating, visual 1-9 (Creeping bentgrass [2]; July) | turfgrass quality (Kentucky blue grass) | overall turf quality performance (Ultra-Dwarf Bermudagrass) | turfgrass quality rating (Bermuda grass [3]) | toxicity rating, visual 1-9 (Creeping bentgrass [4]; June and July) | turfgrass quality rating (Creeping bentgrass [5]) | overall turfgrass quality and residual activity (St. Augustine grass; half-rate of 0.5 lb nitrogen, ratings higher than 6.0 acceptable) | overall turfgrass quality (visual scale 1-9) (St. Augustine grass; monthly 0.5-3.0 lbs nitrogen/1000 sq ft, spray applied, growing season, versus urea and Milorganite) | overall turfgrass quality rating (St. Augustine grass; standard 1.0 lb nitrogen rate, compared to urea and milorganite) | burn level (Bermuda grass [6]; depending upon rate of application, mean over seven weeks) | burn potential (Bermuda grass [6]; turfgrasses recover quickly) | phytotoxicity (injury) rating, visual 1-9 (Creeping bentgrass [2]; August) | toxicity rating, visual 1-9 (Creeping bentgrass [4]; August) |
| --- | --- | --- | --- | --- | --- | --- | --- | --- | --- | --- | --- | --- | --- | --- | --- | --- | --- |
| Cl.NCCCC[C@H](N)C(=O)O [lysine HCl, lysine monohydrochloride] | 500 to 600 | as effective as or more effective than Milorganite and urea | seasonally better turfgrass quality at all rates tested compared to urea and milorganite | statistically equal qualities as Coron | insignificant level of injury | marginally better than urea | statistically the same as that of urea | better than Coron and control plots | Slight and insignificant levels of toxicity | slightly better than the blended synthetic products and Milogranite | acceptable overall turfgrass quality and residual activity | trended better than urea and milorganite | noticeably higher | 3-5% | high burn potential | – | – |
| NC(N)=O [urea, reference compound] | – | – | – | – | – | – | – | – | – | – | – | – | – | – | – | significantly more injury than liquid lysine and lysine HCl | significantly higher toxicity levels |

From US20080269053A1, “Amino Acid Compositions and Methods of Using as Fertilizer” (priority 2007, published 2008)
